Earlier results, collected in patent US20250345512A1, “COMBINATION SODIUM-GLUCOSE COTRANSPORTER INHIBITOR (SGLTI) INSULIN THERAPY FOR GLYCEMIC CONTROL IN TYPE 1 DIABETES” (University of Virginia Patent Foundation, priority 2022, published 2025).

What was measured:
[1] = 25 mg/day added to experimental AID; 9-14 h outpatient; cited from earlier work
[2] = system: T1D patients; parameters: adverse effects, including DKA: reference not given here; conditions: cited from earlier work
[3] = system: T1D patients; conditions: 200 mg and 400 mg; adults with T1D; cited from earlier work
[4] = system: T1D adults; conditions: pooled analysis of 1575 T1D adults; cited from earlier work
[5] = system: T1D; conditions: versus placebo over 18 weeks; cited from earlier work

OC[C@H]1O[C@@H](c2ccc(Cl)c(Cc3ccc(O[C@H]4CCOC4)cc3)c2)[C@H](O)[C@@H](O)[C@@H]1O [empagliflozin]
need for pre-meal carbohydrate counting [1]: reduce the need for pre-meal carbohydrate counting | adverse effects ([2]; 2.5 mg): indistinguishable from placebo | adverse effects, including DKA ([2]; 10 mg and 25 mg daily dose): two to three fold higher | body weight, systolic blood pressure, and diastolic blood pressure ([2]; 1707 T1D patients, 26 weeks of SGLT2i treatment): significant reductions | hemoglobin A1c and hypoglycemia ([2]; EASE trials): improvements in hemoglobin Ale without increase in hypoglycemia

CCOc1ccc(Cc2cc([C@@H]3O[C@H](SC)[C@@H](O)[C@H](O)[C@H]3O)ccc2Cl)cc1 [sotagliflozin]
glycemic control and weight [3]: improved glycemic control and weight | short- and long-term renal hemodynamic changes [4]: reductions in urine albumin:creatinine

Cc1ccc([C@@H]2O[C@H](CO)[C@@H](O)[C@H](O)[C@H]2O)cc1Cc1ccc(-c2ccc(F)cc2)s1 [canagliflozin]
indices of glycemic variability and treatment satisfaction [5]: improved indices of glycemic variability and improvement in treatment satisfaction
